Measured values published in ChEMBL document CHEMBL3877299, “Imidazopyridine-fused [1,3]-diazepinones part 2: Structure-activity relationships and antiproliferative activity against melanoma cells” (Eur J Med Chem, 2017).

Assays:
[1] = Growth inhibition of human PC3 cells assessed as cell growth at 10 uM incubated for 48 hrs by sulforhodamine B assay relative to control; format: functional; details: PC-3, 48 h, read-out: Activity
[2] = Growth inhibition of human KM12 cells assessed as cell growth at 10 uM incubated for 48 hrs by sulforhodamine B assay relative to control; format: functional; details: KM12, 48 h, read-out: Activity
[3] = Growth inhibition of human SKOV3 cells assessed as cell growth at 10 uM incubated for 48 hrs by sulforhodamine B assay relative to control; format: functional; details: SK-OV-3, 48 h, read-out: Activity
[4] = Growth inhibition of human SF539 cells assessed as cell growth at 10 uM incubated for 48 hrs by sulforhodamine B assay relative to control; format: functional; details: SF-539, 48 h, read-out: Activity
[5] = Growth inhibition of human SF268 cells assessed as cell growth at 10 uM incubated for 48 hrs by sulforhodamine B assay relative to control; format: functional; details: SF-268, 48 h, read-out: Activity
[6] = Growth inhibition of human K562 cells assessed as cell growth at 10 uM incubated for 48 hrs by sulforhodamine B assay relative to control; format: functional; details: K562, 48 h, read-out: Activity
[7] = Growth inhibition of human HOP62 cells assessed as cell growth at 10 uM incubated for 48 hrs by sulforhodamine B assay relative to control; format: functional; details: HOP-62, 48 h, read-out: Activity
[8] = Growth inhibition of human NCI-H322M cells assessed as cell growth at 10 uM incubated for 48 hrs by sulforhodamine B assay relative to control; format: functional; details: read-out: Activity
[9] = Growth inhibition of human HL-60(TB) cells assessed as cell growth at 10 uM incubated for 48 hrs by sulforhodamine B assay relative to control; format: functional; details: HL-60, 48 h, read-out: Activity
[10] = Growth inhibition of human M14 cells assessed as cell growth at 10 uM incubated for 48 hrs by sulforhodamine B assay relative to control; format: functional; details: M14, 48 h, read-out: Activity
[11] = Growth inhibition of human NCI/ADR-RES cells assessed as cell growth at 10 uM incubated for 48 hrs by sulforhodamine B assay relative to control; format: functional; details: read-out: Activity
[12] = Growth inhibition of human CCRF-CEM cells assessed as cell growth at 10 uM incubated for 48 hrs by sulforhodamine B assay relative to control; format: functional; details: read-out: Activity
[13] = Growth inhibition of human IGROV1 cells assessed as cell growth at 10 uM incubated for 48 hrs by sulforhodamine B assay relative to control; format: functional; details: IGROV-1, 48 h, read-out: Activity
[14] = Growth inhibition of human T47D cells assessed as cell growth at 10 uM incubated for 48 hrs by sulforhodamine B assay relative to control; format: functional; details: read-out: Activity
[15] = Growth inhibition of human MALME-3M cells assessed as cell growth at 10 uM incubated for 48 hrs by sulforhodamine B assay relative to control; format: functional; details: read-out: Activity
[16] = Growth inhibition of human RPMI8226 cells assessed as cell growth at 10 uM incubated for 48 hrs by sulforhodamine B assay relative to control; format: functional; details: RPMI-8226, 48 h, read-out: Activity
[17] = Growth inhibition of human COLO205 cells assessed as cell growth at 10 uM incubated for 48 hrs by sulforhodamine B assay relative to control; format: functional; details: COLO 205, 48 h, read-out: Activity
[18] = Growth inhibition of human OVCAR4 cells assessed as cell growth at 10 uM incubated for 48 hrs by sulforhodamine B assay relative to control; format: functional; details: OVCAR-4, 48 h, read-out: Activity
[19] = Growth inhibition of human SW620 cells assessed as cell growth at 10 uM incubated for 48 hrs by sulforhodamine B assay relative to control; format: functional; details: SW-620, 48 h, read-out: Activity
[20] = Growth inhibition of human NCI-H23 cells assessed as cell growth at 10 uM incubated for 48 hrs by sulforhodamine B assay relative to control; format: functional; details: NCI-H23, 48 h, read-out: Activity
[21] = Growth inhibition of human NCI-H522 cells assessed as cell growth at 10 uM incubated for 48 hrs by sulforhodamine B assay relative to control; format: functional; details: NCI-H522, 48 h, read-out: Activity
[22] = Growth inhibition of human UACC62 cells assessed as cell growth at 10 uM incubated for 48 hrs by sulforhodamine B assay relative to control; format: functional; details: UACC-62, 48 h, read-out: Activity
[23] = Growth inhibition of human BT549 cells assessed as cell growth at 10 uM incubated for 48 hrs by sulforhodamine B assay relative to control; format: functional; details: BT-549, 48 h, read-out: Activity
[24] = Growth inhibition of human HCT15 cells assessed as cell growth at 10 uM incubated for 48 hrs by sulforhodamine B assay relative to control; format: functional; details: HCT-15, 48 h, read-out: Activity
[25] = Growth inhibition of human LOXIMVI cells assessed as cell growth at 10 uM incubated for 48 hrs by sulforhodamine B assay relative to control; format: functional; details: LOX IMVI, read-out: Activity
[26] = target: Mitogen-activated protein kinase kinase kinase kinase 4 (Homo sapiens, UniProt O95819); experiment: Inhibition of recombinant human HGK using Ulight-FLGFTYVAP as substrate after 90 mins by LANCE assay
[27] = Growth inhibition of human HOP92 cells assessed as cell growth at 10 uM incubated for 48 hrs by sulforhodamine B assay relative to control; format: functional; details: HOP-92, 48 h, read-out: Activity

Sequence of Mitogen-activated protein kinase kinase kinase kinase 4 (O95819 whole entry): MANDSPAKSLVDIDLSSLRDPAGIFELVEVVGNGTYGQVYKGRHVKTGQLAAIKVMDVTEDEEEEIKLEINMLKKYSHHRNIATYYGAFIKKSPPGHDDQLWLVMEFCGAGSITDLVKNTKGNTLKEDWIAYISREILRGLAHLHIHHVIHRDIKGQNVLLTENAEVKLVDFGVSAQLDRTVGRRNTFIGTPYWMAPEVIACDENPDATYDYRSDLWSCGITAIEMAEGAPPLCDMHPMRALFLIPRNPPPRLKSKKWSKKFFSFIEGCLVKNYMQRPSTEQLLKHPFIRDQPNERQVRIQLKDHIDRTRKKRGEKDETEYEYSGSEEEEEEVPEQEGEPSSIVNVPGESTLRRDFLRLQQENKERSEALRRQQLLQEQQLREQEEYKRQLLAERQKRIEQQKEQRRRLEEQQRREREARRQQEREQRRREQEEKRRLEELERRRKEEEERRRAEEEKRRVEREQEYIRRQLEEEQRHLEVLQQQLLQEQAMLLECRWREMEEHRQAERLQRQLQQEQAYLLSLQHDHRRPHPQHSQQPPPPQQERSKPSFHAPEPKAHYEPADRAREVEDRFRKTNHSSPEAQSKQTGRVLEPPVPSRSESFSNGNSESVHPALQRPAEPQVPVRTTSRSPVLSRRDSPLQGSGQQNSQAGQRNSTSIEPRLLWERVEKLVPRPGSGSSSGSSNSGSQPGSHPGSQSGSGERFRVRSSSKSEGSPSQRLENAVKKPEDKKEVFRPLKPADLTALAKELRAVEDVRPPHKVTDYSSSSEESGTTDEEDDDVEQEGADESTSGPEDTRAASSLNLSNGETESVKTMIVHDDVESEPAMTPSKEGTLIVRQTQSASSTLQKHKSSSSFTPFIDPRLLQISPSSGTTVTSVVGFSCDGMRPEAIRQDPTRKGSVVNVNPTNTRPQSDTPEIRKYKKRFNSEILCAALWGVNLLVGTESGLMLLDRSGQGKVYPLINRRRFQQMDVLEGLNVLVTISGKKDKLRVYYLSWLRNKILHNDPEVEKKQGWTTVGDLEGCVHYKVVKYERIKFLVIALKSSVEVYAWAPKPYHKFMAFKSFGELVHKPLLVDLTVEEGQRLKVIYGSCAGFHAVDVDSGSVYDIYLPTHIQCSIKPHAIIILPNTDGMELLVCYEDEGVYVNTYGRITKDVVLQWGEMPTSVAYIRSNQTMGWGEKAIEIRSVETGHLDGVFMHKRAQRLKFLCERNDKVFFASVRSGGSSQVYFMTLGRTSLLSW

Row | Structure (SMILES) | growth at 10 µM [1] [%] | growth at 10 µM [2] [%] | growth at 10 µM [3] [%] | growth at 10 µM [4] [%] | growth at 10 µM [5] [%] | growth at 10 µM [6] [%] | growth at 10 µM [7] [%] | growth at 10 µM [8] [%] | growth at 10 µM [9] [%] | growth at 10 µM [10] [%] | growth at 10 µM [11] [%] | growth at 10 µM [12] [%] | growth at 10 µM [13] [%] | growth at 10 µM [14] [%] | growth at 10 µM [15] [%] | growth at 10 µM [16] [%] | growth at 10 µM [17] [%] | growth at 10 µM [18] [%] | growth at 10 µM [19] [%] | growth at 10 µM [20] [%] | other results
1 | C[C@@H]1NC(c2ccc(Cl)cc2)=Nc2nc3ccccn3c2C1=O | 90 | 64.2 | 75.5 | 84.7 | 87.3 | 70 | 73.3 | 87 | 102 | 91 | 85.6 | 90.8 | 50.7 | 81.4 | 76.2 | 91.3 | 91.8 | 109 | 83.6 | 81.4 | growth at 10 µM [21]: 66.3%; growth at 10 µM [22]: 78.6%; growth at 10 µM [23]: 93.6%; growth at 10 µM [24]: 77.6%; growth at 10 µM [25]: 88.2%
2 | CC(C)(C)OC[C@@H]1NC(c2ccc(Br)cc2)=Nc2nc3ccccn3c2C1=O | 53.4 | 49 | 64.3 | 75.8 | 74.3 | 25.2 | 54.5 | 84.8 | 33.1 | 46.4 | 39.7 | 67.8 | 40.8 | 61.9 | 51.5 | 67.5 | 62.6 | 82.3 | 40.3 | 71.5 | growth at 10 µM [21]: 33.4%; growth at 10 µM [22]: 53.6%; growth at 10 µM [23]: 72.5%; growth at 10 µM [24]: 44.1%; IC50 [26]: 5.6 µM; growth at 10 µM [25]: 58.7%
3 | C[C@@H]1NC(c2ccc3ccccc3c2)=Nc2nc3ccccn3c2C1=O | 52 | 30.3 | 40.5 | 37.2 | 58 | 27.6 | 36.7 | 73.2 | -6.75 | 19.8 | 44.5 | 52.9 | 32.1 | 41.7 | 42.3 | 43.8 | 22.8 | 74.5 | 26.3 | 46.1 | growth at 10 µM [21]: 29.4%; growth at 10 µM [22]: 48.8%; growth at 10 µM [23]: 35.1%; growth at 10 µM [24]: 33.8%; growth at 10 µM [25]: 48.5%
4 | C[C@@H]1NC(c2ccc(Cl)cc2Cl)=Nc2nc3ccccn3c2C1=O | 39.1 | 23.8 | 50.1 | 53 | 58.9 | 23.6 | 52.6 | 63.6 | 0.46 | 31.1 | 44.5 | 56.6 | 41.9 | 64.3 | 43.7 | 75.2 | 22.3 | 89.5 | 25.2 | 61.4 | growth at 10 µM [27]: 55.9%; growth at 10 µM [21]: 28.9%; growth at 10 µM [22]: 40.5%; growth at 10 µM [23]: 55.6%; growth at 10 µM [24]: 35.1%; IC50 [26]: > 100 µM; growth at 10 µM [25]: 51.3%
